Reference: US9447156B2, “Methods and compositions for inhibiting neddylation of proteins” (St. Jude Children's Research Hospital, priority 2011, dated 2016)
Each block holds one molecule with its values, some of them ahead of it.

Tests used:
hCul1^ctd-hRbx1 [1] = assay: ITC hDcn1^P binding to hCul1^ctd-hRbx1; conditions: human versus yeast Kd
Procedure: (§1) Protein samples were buffer matched by desalting over a NAP-5 column (GE Healthcare) into 50 mM Hepes, 125 mM NaCl, 1 mM BME, pH 7.0 (ITC buffer). Peptides were dissolved by weight to a final concentration of 10 mM in ITC buffer and diluted further in ITC buffer as required for the experiments. Measurements were performed using a MicroCal ITC200. hDcn1^P or yDcn1^P were placed into the sample cell at a final concentration of 400 μM at 18° C. The peptide ligands (4 mM) were constantly injected (1.5 μl). The interval time between each injection was 3 minutes and the duration of each injection was 3 seconds. For titrations involving hE1 and yE1, proteins were placed into the sample cell at a final concentration of 25 μM at 22° C. Peptide ligands (250 μM) were constantly injected (2.5 μl). The interval time between each injection was three minutes and the duration of each injection was 5 seconds. For hCul1^ctd-Rbx1:hDcn1^P binding, proteins were buffer matched by desalting over a NAP-5 column in 25 mM Tris, 0.1 M NaCl, 1 mM BME, pH 7.6. hCul1^ctd-Rbx1 was placed into the sample cell at a final concentration of 55 μM at 22° C. hDcn1^P (550 μM) was constantly injected (2.5 μl). The interval time between each injection was 3 minutes and the duration of each injection was 5 seconds. Obtained spectra were evaluated using Origin (V 7.0) to determine heats of binding and Kd values.

hDcn4^P = biological target: T1, hDcn4^P (Homo sapiens, UniProt Q92564); assay: ITC binding of peptides to hDcn4^P; conditions: Table 29, peptides with amidated carboxy-terminus
T1 sequence (Q92564 102-292): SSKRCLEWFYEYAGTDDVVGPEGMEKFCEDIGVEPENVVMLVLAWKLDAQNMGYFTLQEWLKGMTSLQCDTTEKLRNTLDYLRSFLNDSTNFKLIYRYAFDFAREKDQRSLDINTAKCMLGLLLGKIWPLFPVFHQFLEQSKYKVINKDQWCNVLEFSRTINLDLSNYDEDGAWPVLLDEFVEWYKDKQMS
Procedure: as §1, with “values. […]” for “values.”

hDcn2^P = biological target: T2, hDcn2^P (Homo sapiens, UniProt Q6PH85); assay: ITC binding of peptides to hDcn2^P; conditions: Table 29, peptides with amidated carboxy-terminus
T2 construct: human Dcn1 family members 1-5 (also called DCUND1-DCUND5)
Procedure: as §1
(§2) The affinity of various peptides for hDcn1^P, hDcn2^P, hDcn3^P, hDcn4^P, and hDcn5^P was tested using isothermal titration calorimetry as described in Example 1 and is provided in Table 29.

hDcn1^P = biological target: T3, hDcn1^P (Homo sapiens, UniProt Q96GG9); assay: ITC binding of Ubc12/Ube2f peptides to hDcn1^P; conditions: Table 29, peptides with amidated carboxy-terminus, read-out: Binding Kd for hDcn1^P
T3 construct: hDcn1^P corresponds to residues 62 to the C-terminal residue 259 of hDcn1; GST (cleaved yes); made in house; host or cells: E. coli BL21(DE3)Gold
Procedure: as §1, §2

hDcn5^P = biological target: T4, hDcn5^P (Homo sapiens, UniProt Q9BTE7); assay: ITC binding of peptides to hDcn5^P; conditions: Table 29, peptides with amidated carboxy-terminus
T4 construct: human Dcn1 family members 1-5 (also called DCUND1-DCUND5)
T4 sequence (Q9BTE7 47-237): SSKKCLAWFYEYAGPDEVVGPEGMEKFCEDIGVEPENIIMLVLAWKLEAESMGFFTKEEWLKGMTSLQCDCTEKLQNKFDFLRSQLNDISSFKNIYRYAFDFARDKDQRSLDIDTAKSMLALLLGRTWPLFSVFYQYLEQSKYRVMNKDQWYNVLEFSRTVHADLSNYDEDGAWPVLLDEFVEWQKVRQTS
Procedure: as §1, with “values. […]” for “values.”

yCul1^C+-yRbx1 = conditions: yeast counterparts; read-out: Kd yCul1^C+-yRbx1:yDcn1^P; cited from earlier work
hCul1^ctd-hRbx1 [2] = assay: Pulse-chase assay of [32P]~hNedd8 transfer from hUbc12 to hCul1-hRbx1 with or without hDcn1^P; type: biochemical, human; conditions: FIG. 3
Procedure: Dcn1^P-mediated co-E3 activity was monitored using pulse-chase assays to exclusively monitor effects of acetylation on Nedd8 transfer to Cul1 without sensing earlier steps in the reaction. For the “pulse”, 10 μM of the indicated versions of yUbc12 were charged with [^32P]-yNedd8 (also referred to as [^32P]-Rub1) as described previously (Scott et al. (2010) Mol Cell 39(5):784-796), resulting in formation of a thiolester-linked yUbc12-[^32P]-yNedd8 intermediate. 10 μM of the indicated versions of hUbc12 were charged similarly with [^32P]-hNedd8, for 15 minutes at room temperature using 0.1 μM hE1, 15 μM [^32P]-hNedd8, in 50 mM Hepes, 100 mM NaCl, 1.25 mM ATP, 2.5 mM MgCl2, pH 7.5. Formation of a yUbc12-[^32P]-yNedd8 or hUbc12-[^32P]-hNedd8 intermediate was quenched with 50 mM EDTA on ice for 5 minutes. Other than in FIG. 3, where additional details are provided, chase reactions with hUbc12 and yUbc12 variants involved dilution of the Ubc12-[^32P]-Nedd8 thioester conjugate to 40 nM in 50 mM BisTris, 100 mM NaCl, 50 mM EDTA, 0.5 mg/ml BSA, pH 6.7. Chase reactions were initiated at 0° C. by the addition of hCul1^ctd-hRbx1, yCul1^C+-yRbx1, hDcn1^P-hCul1^ctd-hRbx1, or yDcn1^P-yCul1^C+-yRbx1 at a final concentration of 125 nM. Aliquots were removed at the indicated times and quenched with 2×SDS-PAGE sample buffer. […]

Chain of yCul1^C+-yRbx1 (Q12018 427-815 limits assumed): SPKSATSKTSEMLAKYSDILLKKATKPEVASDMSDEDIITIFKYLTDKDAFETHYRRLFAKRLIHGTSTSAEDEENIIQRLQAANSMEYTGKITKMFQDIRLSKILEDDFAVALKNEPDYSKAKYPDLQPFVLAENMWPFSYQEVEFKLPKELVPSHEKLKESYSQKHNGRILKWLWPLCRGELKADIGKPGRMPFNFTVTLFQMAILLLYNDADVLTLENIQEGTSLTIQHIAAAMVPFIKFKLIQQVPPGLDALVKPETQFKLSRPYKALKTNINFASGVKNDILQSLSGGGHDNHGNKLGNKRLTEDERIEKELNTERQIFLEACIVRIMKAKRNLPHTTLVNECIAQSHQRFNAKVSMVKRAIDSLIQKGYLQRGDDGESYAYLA
Chain of yCul1^C+-yRbx1 (Q08273 32-121 limits assumed, further chain): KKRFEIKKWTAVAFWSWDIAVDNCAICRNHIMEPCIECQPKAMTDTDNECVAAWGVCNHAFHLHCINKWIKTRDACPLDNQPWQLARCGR
T2 sequence (Q6PH85 62-259): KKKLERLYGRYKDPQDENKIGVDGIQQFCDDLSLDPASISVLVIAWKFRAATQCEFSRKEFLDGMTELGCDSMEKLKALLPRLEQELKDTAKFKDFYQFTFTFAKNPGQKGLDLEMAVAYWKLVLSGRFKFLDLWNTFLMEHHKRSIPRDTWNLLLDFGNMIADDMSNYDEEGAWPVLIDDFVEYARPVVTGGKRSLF
T3 sequence (Q96GG9 62-259): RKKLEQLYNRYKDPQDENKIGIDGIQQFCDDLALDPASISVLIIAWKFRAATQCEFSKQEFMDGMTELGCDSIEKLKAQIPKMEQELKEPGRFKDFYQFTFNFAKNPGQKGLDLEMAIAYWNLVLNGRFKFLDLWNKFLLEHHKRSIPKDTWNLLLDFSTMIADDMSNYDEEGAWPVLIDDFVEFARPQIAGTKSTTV

B1: yDcn1^P: PONY domain of S. cerevisiae Dcn1 (protein)
chain: VYPKELTQVFEHYINNNLFDIDSLVKFIEELGYNLEDLATLCLAHLLGYKKLEEPLKREDFLSTWFMQGCSTISDMQECIKTLDVKLHEDLQYFTQIYNYAFNLILDPNRKDIDTDEGIQYWKLFFQPEYPVRMEPDLLEAWFRFLRDEGKTTISKDTWRMLLLFFKRYPTIQKIISDYDETAAWPFIIDEFYECLQDQQ
Kd (yCul1^C+-yRbx1): 0.028 µM

B2: CAND1: protein inhibitor of Cul1 neddylation, expressed in E. coli (protein, UniProt Q86VP6 2-1230, looked up)
Cullin-associated …: ASASYHISNLLEKMTSSDKDFRFMATNDLMTELQKDSIKLDDDSERKVVKMILKLLEDKNGEVQNLAVKCLGPLVSKVKEYQVETIVDTLCTNMLSDKEQLRDISSIGLKTVIGELPPASSGSALAANVCKKITGRLTSAIAKQEDVSVQLEALDIMADMLSRQGGLLVNFHPSILTCLLPQLTSPRLAVRKRTIIALGHLVMSCGNIVFVDLIEHLLSELSKNDSMSTTRTYIQCIAAISRQAGHRIGEYLEKIIPLVVKFCNVDDDELREYCIQAFESFVRRCPKEVYPHVSTIINICLKYLTYDPNYNYDDEDEDENAMDADGGDDDDQGSDDEYSDDDDMSWKVRRAAAKCLDAVVSTRHEMLPEFYKTVSPALISRFKEREENVKADVFHAYLSLLKQTRPVQSWLCDPDAMEQGETPLTMLQSQVPNIVKALHKQMKEKSVKTRQCCFNMLTELVNVLPGALTQHIPVLVPGIIFSLNDKSSSSNLKIDALSCLYVILCNHSPQVFHPHVQALVPPVVACVGDPFYKITSEALLVTQQLVKVIRPLDQPSSFDATPYIKDLFTCTIKRLKAADIDQEVKERAISCMGQIICNLGDNLGSDLPNTLQIFLERLKNEITRLTTVKALTLIAGSPLKIDLRPVLGEGVPILASFLRKNQRALKLGTLSALDILIKNYSDSLTAAMIDAVLDELPPLISESDMHVSQMAISFLTTLAKVYPSSLSKISGSILNELIGLVRSPLLQGGALSAMLDFFQALVVTGTNNLGYMDLLRMLTGPVYSQSTALTHKQSYYSIAKCVAALTRACPKEGPAVVGQFIQDVKNSRSTDSIRLLALLSLGEVGHHIDLSGQLELKSVILEAFSSPSEEVKSAASYALGSISVGNLPEYLPFVLQEITSQPKRQYLLLHSLKEIISSASVVGLKPYVENIWALLLKHCECAEEGTRNVVAECLGKLTLIDPETLLPRLKGYLISGSSYARSSVVTAVKFTISDHPQPIDPLLKNCIGDFLKTLEDPDLNVRRVALVTFNSAAHNKPSLIRDLLDTVLPHLYNETKVRKELIREVEMGPFKHTVDDGLDIRKAAFECMYTLLDSCLDRLDIFEFLNHVEDGLKDHYDIKMLTFLMLVRLSTLCPSAVLQRLDRLVEPLRATCTTKVKANSVKQEFEKQDELKRSAMRAVAALLTIPEAEKSPLMSEFQSQISSNPELAAIFESIQKDSSSTNLESMDTS
Cul1 neddylation in the presence of Dcn1^P and Ubc12 N-terminal acetylation (hCul1^ctd-hRbx1 [2]): blocked

More lines, now with the values ahead:

Kd of human proteins relative to yeast counterparts (fold worse) (hCul1^ctd-hRbx1 [1]): approximately 30 fold
Molecule: hDcn1^P: residues 62 to 259 of hDcn1 (SCCRO, DCUN1D1), the potentiating neddylation domain

Kd (hDcn4^P): > 40 µM
Kd (hDcn2^P): > 400 µM
Kd (hDcn1^P): > 500 µM
Kd (hDcn5^P): > 30 µM
Molecule: Ac-MLTLASKLKRDDGLKGSRTAATASD-NH2 [hUbe2f^Ac1−25]
